# Measured values as given in patent US9198433B2, “Substituted benzene fungicides” (E I DU PONT DE NEMOURS AND COMPANY, priority 2007, dated 2015).
# Marks after values point to notes of the source that are not given here.
# How the values were obtained:
# Type in all cases: in vivo
# Septoria tritici = test: Test D: wheat leaf blotch, preventive spray on wheat seedlings, disease rating
# Text: The test compounds were first dissolved in acetone in an amount equal to 3% of the final volume and then suspended at the desired concentration (in ppm) in acetone and purified water (50/50 mix) containing 250 ppm of the surfactant Trem® 014 (polyhydric alcohol esters). The resulting test suspensions were then used in Tests A-L. Spraying a 200 ppm test suspension to the point of run-off on the test plants was the equivalent of an application rate of 500 g/ha. The test suspension was sprayed to the point of run-off on wheat seedlings. The following day the seedlings were inoculated with a spore suspension of Septoria tritici (the causal agent of wheat leaf blotch) and incubated in a saturated atmosphere at 24° C. for 48 h, and then moved to a growth chamber at 20° C. for 19 days, after which time disease ratings were made. […] A dash (-) indicates no test results. All results are for 200 ppm except where followed by an “*”, which indicates 40 ppm or “**”, which indicates 50 ppm.
# Septoria nodorum = test: Test C: wheat glume blotch, preventive spray on wheat seedlings, disease rating
# Text: (§1) The test compounds were first dissolved in acetone in an amount equal to 3% of the final volume and then suspended at the desired concentration (in ppm) in acetone and purified water (50/50 mix) containing 250 ppm of the surfactant Trem® 014 (polyhydric alcohol esters). The resulting test suspensions were then used in Tests A-L. Spraying a 200 ppm test suspension to the point of run-off on the test plants was the equivalent of an application rate of 500 g/ha. The test suspension was sprayed to the point of run-off on wheat seedlings. […] A dash (-) indicates no test results. All results are for 200 ppm except where followed by an “*”, which indicates 40 ppm or “**”, which indicates 50 ppm.
# Alternaria solani = test: Test H: tomato early blight, preventive spray on tomato seedlings, disease rating
# Text: (§2) The test compounds were first dissolved in acetone in an amount equal to 3% of the final volume and then suspended at the desired concentration (in ppm) in acetone and purified water (50/50 mix) containing 250 ppm of the surfactant Trem® 014 (polyhydric alcohol esters). The resulting test suspensions were then used in Tests A-L. Spraying a 200 ppm test suspension to the point of run-off on the test plants was the equivalent of an application rate of 500 g/ha. The test suspension was sprayed to the point of run-off on tomato seedlings. […] A dash (-) indicates no test results. All results are for 200 ppm except where followed by an “*”, which indicates 40 ppm or “**”, which indicates 50 ppm.
# Botrytis cinerea = test: Test F: tomato Botrytis, preventive spray on tomato seedlings, disease rating
# Text: as §2
# [1] = test system: Erysiphe graminis f. sp. tritici; test: Test A: wheat powdery mildew, preventive spray on wheat seedlings, disease rating
# Text: as §1
# [2] = test system: Puccinia recondita f. sp. tritici; test: Test B: wheat leaf rust, preventive spray on wheat seedlings, disease rating
# Text: as §1
Compound,"Percentage Disease Control, Test D (Septoria tritici; 40 ppm (*))","Percentage Disease Control, Test C (Septoria nodorum; 40 ppm (*))","Percentage Disease Control, Test H (Alternaria solani; 40 ppm (*))","Percentage Disease Control, Test F (Botrytis cinerea; 40 ppm (*))","Percentage Disease Control, Test A ([1]; 40 ppm (*))","Percentage Disease Control, Test B ([2]; 40 ppm (*))","Percentage Disease Control, Test F (Botrytis cinerea; 200 ppm) [%]","Percentage Disease Control, Test H (Alternaria solani; 200 ppm) [%]","Percentage Disease Control, Test D (Septoria tritici; 200 ppm) [%]","Percentage Disease Control, Test C (Septoria nodorum; 200 ppm) [%]","Percentage Disease Control, Test A ([1]; 200 ppm) [%]","Percentage Disease Control, Test B ([2]; 200 ppm) [%]"
COC(=O)NCc1cc(-c2ccn(Cc3cccc(OC(F)(F)F)c3)n2)ccc1Cl [Cmpd 65],100* %,99* %,8* %,0* %,99* %,99* %,–,–,–,–,–,–
COC(=O)NCc1cc(-c2ccn(Cc3ccc(OC(F)(F)F)cc3)n2)ccc1Cl [Cmpd 66],100* %,100* %,96* %,0* %,99* %,100* %,–,–,–,–,–,–
COC(=O)NCc1cc(-c2ccn(Cc3ccc(Cl)cc3)n2)ccc1Cl [Cmpd 67],100* %,99* %,96* %,0* %,96* %,99* %,–,–,–,–,–,–
COC(=O)NCc1cc(-c2ccn(-c3cccc(OC(F)(F)F)c3)n2)ccc1Cl [Cmpd 68],100* %,99* %,86* %,–,97* %,100* %,0,–,–,–,–,–
COC(=O)NCc1cc(-c2ccn(-c3cccc(C(F)(F)F)n3)n2)ccc1Cl [Cmpd 69],98* %,98* %,–,–,97* %,92* %,0,32,–,–,–,–
COC(=O)NCc1cc(-c2ccn(Cc3ccc(C)cc3)n2)ccc1Cl [Cmpd 72],100* %,100* %,94* %,97* %,99* %,99* %,–,–,–,–,–,–
COC(=O)NCc1cc(-c2ccn(Cc3cccc([N+](=O)[O-])c3)n2)ccc1Cl [Cmpd 73],98* %,96* %,14* %,95* %,74* %,98* %,–,–,–,–,–,–
COC(=O)NCc1cc(-c2ccn(-c3ccc(Cl)cc3)n2)ccc1Cl [Cmpd 74],100* %,100* %,99* %,51* %,100* %,100* %,–,–,–,–,–,–
COC(=O)NCc1cc(-c2ccn(Cc3cccc(C#N)c3)n2)ccc1Cl [Cmpd 75],91* %,40* %,61* %,20* %,72* %,93* %,–,–,–,–,–,–
COC(=O)NCc1cc(-c2ccn(Cc3ccccc3OC(F)(F)F)n2)ccc1Cl [Cmpd 76],100* %,99* %,0* %,0* %,99* %,100* %,–,–,–,–,–,–
COC(=O)NCc1cc(-c2ccn(-c3cc(C(F)(F)F)cc(C(F)(F)F)c3)n2)ccc1Cl [Cmpd 78],90* %,0* %,0* %,33* %,100* %,85* %,–,–,–,–,–,–
COC(=O)NCc1cc(-c2ccn(-c3cccc(Cl)c3)n2)ccc1Cl [Cmpd 80],100* %,100* %,29* %,60* %,98* %,98* %,–,–,–,–,–,–
COC(=O)NCc1cc(-c2ccn(-c3cccc(C)c3)n2)ccc1Cl [Cmpd 81],99* %,100* %,97* %,81* %,85* %,99* %,–,–,–,–,–,–
COC(=O)C(=O)c1cc(-c2ccn(-c3cccc(C(F)(F)F)c3)n2)ccc1C [Cmpd 83],–,–,–,–,–,–,0,0,89,0,19,0
CON=C(C(=O)OC)c1cc(-c2ccn(-c3cccc(C(F)(F)F)c3)n2)ccc1C [Cmpd 84],99* %,–,–,–,98* %,–,67,54,–,92,–,80
CNC(=O)C(=NOC)c1cc(-c2ccn(-c3cccc(C(F)(F)F)c3)n2)ccc1C [Cmpd 85],99* %,99* %,–,–,100* %,97* %,0,86,–,–,–,–
COC(=O)NCc1cc(-c2ccn(-c3cc(C(F)(F)F)ccn3)n2)ccc1Cl [Cmpd 86],98* %,100* %,9* %,0* %,99* %,100* %,–,–,–,–,–,–
COC(=O)NCc1cc(-c2ccn(-c3nccc(C(F)(F)F)n3)n2)ccc1Cl [Cmpd 87],99* %,97* %,9* %,0* %,82* %,100* %,–,–,–,–,–,–
COC(=O)NCc1cc(-c2ccn(-c3ccc(Cl)c(C(F)(F)F)c3)n2)ccc1Cl [Cmpd 88],100* %,100* %,0* %,0* %,95* %,97* %,–,–,–,–,–,–
COC(=O)NCc1cc(-c2ncn(-c3cccc(C(F)(F)F)c3)n2)ccc1Cl [Cmpd 89],100* %,100* %,89* %,–,100* %,100* %,0,–,–,–,–,–
